Measured values from patent US20130108573A1, “Bile Acid Recycling Inhibitors for Treatment of Hypercholemia and Cholestatic Liver Disease” (Lumena Pharmaceuticals, Inc., priority 2011, published 2013).
Marks after values point to notes of the source that are not given here.

Experiments:
Dog Serum Bile Acids [1] = assay: Duration of action of LUM001 on dog serum bile acids, Method 1: two meals for extended SBA elevation; format: in vivo, beagle dogs; details: for Serum Bile Acid, Mean: dogs n = 6, full meal at 0 hr, dosed at 1 hr, one-half meal at 4 hr
Procedure: (§1) LUM001 was dissolved in water at concentrations that required the administration of 0.2 ml/kg of solution. Solutions were placed into gelatin capsules, Torpac Inc., size 13 Batch 594, East Hanover N.J., and administered orally.
(§2) Male beagle dogs were obtained from Covance Research Products, Cumberland Va. or Marshall Farms USA, Inc., North Rose N.Y. A total of 20 dogs, 1 to 5 years old, 6.8 to 15.6 kg body weight, were used in these experiments. The dogs were conditioned to a 12 hour light/dark cycle and maintained on a feeding restriction of 1 hour per day access to food (Richman Standard Certified Canine Diet #5007, PMI Nutrition, Inc., St Louis Mo.) from 7 to 8 AM. They were trained to eat a special meal promptly within 20 minutes when presented (1 can. 397 g, Evanger's 100% Beef for Dogs, Evanger's Dog and Cat Food Co., Inc., Wheeling Ill., mixed with 50 g of sharp cheddar cheese.).
(§3) SBA was measured by an enzymatic assay. SBA values are expressed as μg of total bile acids/ml of serum.
(§4) In dogs a single experimental meal produces a postprandial rise in SBA that is elevated to a peak at 1 hour after feeding and constant for an additional 3 hours. Previous experiments (2) indicate that LUM001 remains active for more than 4.5 hours. To measure the duration of action of an ASBT inhibitor using postprandial SBA levels requires that in the control situation the SBA levels remain elevated and constant for the entire period of compound action, or that the compound be administered long before the postprandial rise occurs, and remain active in the empty digestive system for long periods before feeding. Accordingly, two alternative methods were used to provide a window of constant SBA elevation that could be used to measure the duration of action of ASBT inhibitors.
LUM001 was administered at 0.05 and 0.2 mg/kg, p.o. to 6 dogs 1 hr after feeding them a meal. At 4 hours after the meal was offered, a second meal of ½ the size of the first meal was offered. It too was consumed as promptly and thoroughly as the first meal, and provided an extended, constant SBA plateau. Blood samples for SBA measurement were taken at 0, 1, 1.5, 2, 4, 4.5, 5, 5.5, 6, 6.5, 7, 7.5 and 8 hours from the time of offering the first meal. Mean SBA levels were compared to the mean SBA level at 1 hour, each dog serving as its own control.

Dog Serum Bile Acids [2] = assay: Duration of action of LUM001 on dog serum bile acids, Method 2: one meal, extended interval between dosing and feeding; format: in vivo, beagle dogs; details: for Serum Bile Acid, Mean: dogs n = 6, 0.2 mg/kg p.o., dosing time 0 hr, feeding time 2 hr
Procedure: as §1, §2, §3, §4
Alternatively, 6 dogs were dosed with water or LUM001, at 0.05 mg/kg, p.o. at 1.5 hours prior to being fed, or 0.05, or 0.2 mg/kg, at 2 hours prior to feeding. This moved the elevated SBA plateau out in time from the dose point. Blood samples for SBA measurement were taken immediately before dosing (0 or 0.5 hr), at feeding (2 hr), 2.5, 3, 4 and 5 hours after feeding. This allowed detection of activity out to 5.5 and 6 hours after dosing without feeding the dogs a second time. Mean SBA levels were compared to the corresponding mean SBA levels in water treated controls.

[3] = tested on: Serum Bile Acid and Fecal Bile Acid; assay: Phase 1 ascending multiple oral dose study of LUM001 in healthy adult subjects: serum and fecal bile acid analysis; format: in vivo, human; details: ascending multiple oral doses, 28 days, vs placebo
Procedure: This Phase 1 study was a randomized, double-blind, placebo-controlled study of ascending multiple oral doses of LUM001 in healthy, adult subjects. This study was conducted at a single center. There were 13 LUM001 dosing panels: 10, 20, 60, 100, and 20 mg every morning (qAM) (2) (i.e., the regimen was tested a second time in the study), 5 mg every evening (qPM), 0.5, 1, 2.5, 5, 2.5 (2), 5 (2), and 0.5 to 5 mg qAM dose titration. Most of the dosing panels included subjects treated with matching placebo. Shown in the graphs are data from the 0.5 (n=16), 1.0 (n=8), 2.5 (n=8), 5.0 (n=8) and 10 (n=8) mg dosing groups. […]
SBA were analyzed as part of the routine clinical analysis of the serum samples collected at each time point.
Fecal samples were collected for all panels except the dose-titration panel, 2.5 (2) and 5 mg (2), on Days 9 through 14 and 23 through 28 (data shown in FIG. 4). Twenty-four hour FBA excretions were quantified by Pharmacia for Days 9 through 14 and 23 through 28. […] The weight of each 24-hour fecal collection was recorded on the CRFs. […]
An aliquot for each 24-hour fecal sample collected on Days 23 through 28 was combined, homogenized, and analyzed for bile acid species concentrations by ANAPHARM. The fecal bile acid species evaluated include chenodeoxycholic acid, cholic acid, deoxycholic acid, and lithocholic acid.

Dog Serum Bile Acids [4] = details: dogs; previous experiments (2); cited from earlier work

CCCCC1(CCCC)CS(=O)(=O)c2ccc(N(C)C)cc2[C@@H](c2ccc(OCc3ccc(C[N+]45CCN(CC4)CC5)cc3)cc2)[C@H]1O [LUM001]
Serum Bile Acid, Mean (Dog Serum Bile Acids [1]; 0.05 mg/kg p.o., time 0 hr): 1.4 µg/mL
Serum Bile Acid, Mean (Dog Serum Bile Acids [1]; 0.05 mg/kg p.o., time 1 hr): 9.2 µg/mL
Serum Bile Acid, Mean (Dog Serum Bile Acids [1]; 0.05 mg/kg p.o., time 1.5 hr): 9.6 µg/mL
Serum Bile Acid, Mean (Dog Serum Bile Acids [1]; 0.05 mg/kg p.o., time 2 hr): 6.7 µg/mL
Serum Bile Acid, Mean (Dog Serum Bile Acids [1]; 0.05 mg/kg p.o., time 4 hr): 5.1* μg/ml
Serum Bile Acid, Mean (Dog Serum Bile Acids [1]; 0.05 mg/kg p.o., time 4.5 hr): 6.4 µg/mL
Serum Bile Acid, Mean (Dog Serum Bile Acids [1]; 0.05 mg/kg p.o., time 5 hr): 7.0 µg/mL
Serum Bile Acid, Mean (Dog Serum Bile Acids [1]; 0.05 mg/kg p.o., time 6 hr): 7.0 µg/mL
Serum Bile Acid, Mean (Dog Serum Bile Acids [1]; 0.05 mg/kg p.o., time 7 hr): 7.4 µg/mL
Serum Bile Acid, Mean (Dog Serum Bile Acids [1]; 0.05 mg/kg p.o., time 8 hr): 6.5 µg/mL
Serum Bile Acid, Mean (Dog Serum Bile Acids [1]; 0.2 mg/kg p.o., time 0 hr): 1.3 µg/mL
Serum Bile Acid, Mean (Dog Serum Bile Acids [1]; 0.2 mg/kg p.o., time 1 hr): 11.1 µg/mL
Serum Bile Acid, Mean (Dog Serum Bile Acids [1]; 0.2 mg/kg p.o., time 1.5 hr): 9.1 µg/mL
Serum Bile Acid, Mean (Dog Serum Bile Acids [1]; 0.2 mg/kg p.o., time 2 hr): 3.8* μg/ml
Serum Bile Acid, Mean (Dog Serum Bile Acids [1]; 0.2 mg/kg p.o., time 4 hr): 2.5* μg/ml
Serum Bile Acid, Mean (Dog Serum Bile Acids [1]; 0.2 mg/kg p.o., time 4.5 hr): 3.3* μg/ml
Serum Bile Acid, Mean (Dog Serum Bile Acids [1]; 0.2 mg/kg p.o., time 5 hr): 3.1* μg/ml
Serum Bile Acid, Mean (Dog Serum Bile Acids [1]; 0.2 mg/kg p.o., time 6 hr): 3.6* μg/ml
Serum Bile Acid, Mean (Dog Serum Bile Acids [1]; 0.2 mg/kg p.o., time 7 hr): 3.9* μg/ml
Serum Bile Acid, Mean (Dog Serum Bile Acids [1]; 0.2 mg/kg p.o., time 8 hr): 5.8* μg/ml
Time after dosing beyond which the significant SBA decrease was not sustained (Dog Serum Bile Acids [1]; dogs, 0.05 mg/kg orally 1 hour after feeding): ≤ 3 h
Time serum bile acid levels remained significantly lowered (Dog Serum Bile Acids [1]; dogs, 0.2 mg/kg orally 1 hour after feeding): at least 6 hours
Serum Bile Acid, Mean (Dog Serum Bile Acids [2]; time 0 hr): 1.3 µg/mL
Serum Bile Acid, Mean (Dog Serum Bile Acids [2]; time 2 hr): 1.7 µg/mL
Serum Bile Acid, Mean (Dog Serum Bile Acids [2]; time 5 hr): 7.9* μg/ml
Time after feeding for which a significant SBA effect was sustained (Dog Serum Bile Acids [2]; dogs, 0.2 mg/kg administered 2 hours prior to feeding): 2 to 3 h
Fecal bile acids [3]: significant increase
Serum bile acids [3]: significant reduction
Time LUM001 remains active (Dog Serum Bile Acids [4]): more than 4.5 hours
